Data taken from patent US20200345746A1, “Oxazine Derivative for Use in the Prevention of Alzheimer's Disease in at Risk Patents” (Novartis AG, priority 2016, published 2020).
Marks after values point to notes of the source that are not given here.

Legend:
[1] = tested on: C57BL/6 mice; test: Fur colour scoring, chronic 8-week dosing in wild-type mice; type: in vivo, mouse
Method: (§1) Compound 1 and NB-360 were formulated as a suspension. […] Vehicle: […] in 0.5% methylcellulose in water.
(§2) Body weight was taken 3 times per week (Monday, Wednesday, Friday). Subjective scoring of any hair colour changes was performed once weekly (Wednesday). Scores (% of body with grey fur): 0: No change; 1: Spots; 2: >30%; 3: >50%; 4: >75%; 5: 100%. Animals were photo-documented when fur color change was observed. Final fur color scoring was performed blinded and by a person not involved in the study.

[2] = Body weight, chronic 8-week dosing in wild-type mice; type: in vivo, mouse; conditions: C57BL/6 mice, 8 weeks chronic treatment
Method: as §1, §2

[3] = Compound levels in blood, brain and skin of C57BL/6 mice (HPLC/MS/MS); conditions: for AUCbrain (AUC0-24 h) / AUCventral skin (AUC0-24 h) / AUCdorsal skin (AUC0-24 h) / AUC(0-t): day 56; for AUCbrain (AUC0-24 h) / AUCventral skin (AUC0-24 h) / AUCdorsal skin (AUC0-24 h): from 4 and 24 h; for AUC(0-t): whole blood, po, AUCblood (AUC0-24 h)

- fur discoloration reached a plateau after [1]: 5 weeks
- fur colour change ([1]; 20 μmol/kg p.o. once daily, 8 weeks): slight but significant fur score change
- appearance of grey patches apparent after ([1]; high and low dose group): 3 weeks
- AUCbrain (AUC0-24 h) ([3]; C57BL/6, 20 μmol/kg q.d.): 16.39 µmol·h/kg
- AUCventral skin (AUC0-24 h) ([3]; C57BL/6, 20 μmol/kg q.d.): 104.81 µmol·h/kg
- AUCdorsal skin (AUC0-24 h) ([3]; C57BL/6, 20 μmol/kg q.d., n = 2 for 24 h): 46.9^c μmol/kg · h
- AUCbrain (AUC0-24 h) ([3]; C57BL/6, 100 μmol/kg q.d.): 114.45 µmol·h/kg
- AUCdorsal skin (AUC0-24 h) ([3]; C57BL/6, 100 μmol/kg q.d.): 294 µmol·h/kg
- AUCventral skin (AUC0-24 h) ([3]; C57BL/6, 100 μmol/kg q.d.): 712.16 µmol·h/kg
- Kp ([3]; C57BL/6, mouse, brain / whole blood, oral): 2.8
- AUC(0-t) ([3]; C57BL/6, mouse, 20 umol/kg, C57BL/6, 20 μmol/kg q.d., from 1, 4, 7, 24 h time points): 6.93 µM·h
- AUC(0-t) ([3]; C57BL/6, mouse, 20 umol/kg, C57BL/6, 20 μmol/kg q.d., from 4 and 24 h time points): 5.6 µM·h
- AUC(0-t) ([3]; C57BL/6, mouse, 100 umol/kg, C57BL/6, 100 μmol/kg q.d., from 1, 4, 7, 24 h time points): 35.9 µM·h
- AUC(0-t) ([3]; C57BL/6, mouse, 100 umol/kg, C57BL/6, 100 μmol/kg q.d., from 4 and 24 h time points): 25.3 µM·h
SMILES: Cc1cc(C#N)cnc1C(=O)Nc1ccc(F)c([C@]2(C)CO[C@@](C)(C(F)(F)F)C(N)=N2)c1 [NB-360, N-(3-((3R,6R)-5-amino-3,6-dimethyl-6-(trifluoromethyl)-3,6-dihydro-2H-1,4-oxazin-3-yl)-4-fluorophenyl)-5-cyano-3-methylpicolinamide]
- fur colour change ([1]; 100 μmol/kg p.o. once daily, 8 weeks): more severe and profound fur color change
- fur discoloration ([1]; 20 and 100 μmol/kg groups, 8 weeks): All animals in the NB-360 group showed fur discoloration
- body weight difference compared to vehicle [2]: No overall significant body weight difference
